Results on 4 compounds are retold here after patent US8735624B2, “Polymorphic form of CHDMAPP, method of preparation thereof, and pharmaceutical composition comprising same” (Innate Pharma, priority 2008, dated 2014).

Series [1] can be described thus: DVS hygroscopicity and moisture measurements. Particulars: result in words. Type of series: physicochemical. On the procedure:
Moisture sorption isotherms of the crystalline phases were obtained by using a DVS-1 automated water sorption analyzer (Surface Measurements Systems, Alperton, Middlesex, United Kingdom). The reference material was an empty glass pan and the total gas flow was 200 sccm.min^−1 (Standard Cubic Centimeters per minute). Temperature of analysis was 20° C. For each measurement, precisely ca. 15 mg of the sample were weighed in a glass pan beforehand allowed for the tare, then placed in the analyzer.
As a first stage, dry nitrogen (0% R.H) was applied until constant weight of the sample in order to eliminate adsorbed or absorbed water (potential dehydration). Then, mass variations were recorded while R.H. was increased by steps of 10% R.H. The automated analyzer was allowed to start the following step as soon as the mass variation of the sample was less than 5.10^−4 mg.min^−1. The upper limit was adjusted below the deliquescence of the compound and never exceeded 90% R.H.
DVSWin (v 2.18) was used as control and data collection software whereas data processing was performed by using DVS Standard Analysis Suite (v 4.3).
Further parameters used in DVS procedures are as follows:
Protocole Dynamic Vapor Sorption/Appareil ‘Surface Measurements Systems)=
Automated Water Sorption Analyzer’/model: DVS−1
Analysis method: • step mode, • Temperature: 20° C. • step dm/dt<0.0005 (mg/min) • First stage R.H.=0% • Last Stage R.H.=90% • Minimum Stage: 20 min • Maximum Stage: 120 min • Total Gas Flow: 200 • Nitrogen: 200 Bars, H2O<3 ppm, O2<2 ppm, Réf. Nitrogen N50 B50*0 Software—data collection and data processing: • DVSWin v2.18 (control software), • DVS Standard Analysis Suite v4.3 (analysis software).]

A short description of series [2]: solid phase stability on storage (XRPD). Type of series: physicochemical. Particulars: for crystalline structure after storage (XRPD): stored 3 months at 40° C., 75% RH. The procedure: X-Ray Powder Diffraction measurements were carried out by using a SIEMENS D5005 diffractometer (Bruker analytical X-Ray Systems, D-76187 Karlsruhe, Germany) with a Bragg Brentano geometry, in theta-theta reflection mode. The instrument is equipped with a X-Ray tube (copper anticathode, 40 kV, 30 mA, Kα1 radiation: 1.5406 Å, Kα2 radiation: 1.5444 Å), a nickel filter and a scintillation detector. The diffraction patterns were collected by steps of 0.04° (2-theta) over the angular range 3°-30°, with a counting time of 4 s per step. No internal standard was used but a sample of quartz was analyzed as an external standard. The temperature of the sample was either the room temperature or accurately monitored when heating was required. DIFFRAC PLUS Edit Job software (v. 2.00) was used as control software and data processing was performed by using the Eva software (v. 9.0 and v. 10.0).

A further series can be described thus: TG/DSC thermal stability. Format: physicochemical. Particulars: TGA-DSC. The procedure:
The stability range was assessed using Differential Scanning calorimetry (DSC), using a Netzsch STA 449C apparatus, as is described in detail hereinafter, and having a standard deviation of ±0.5° C. The person skilled in the art will appreciate that alternative readings of the melting point may result from the use of other types of DSC equipment and/or the use of other system under conditions different to those described below.
TG/DSC measurements were carried out by using a NETZSCH STA 449C Jupiter Thermogravimetric Analyzer (NETZSCH, D-95100 Selb, Germany) equipped with a low temperature furnace. The purge gas used was helium (gas flow=50 mL/min) and the reference material was an empty aluminum pan without cap. The samples were weighed in open aluminum pans, and then placed in the analyzer. The analyses were performed within various temperature ranges using a 2°.min^−1 heating rate. PROTEUS software was used for the acquisition and data processing (v. 4.7.0).
Background: In DSC, transitions show as peaks or steps in heat flow.

Series [3] can be described thus: ICH stability testing (chemical purity by HPAEC). Format: physicochemical. Conditions: closed glass vials. On the procedure: The chemical purity of phosphoesters (including the isomeric purity for geometric isomers) is determined using High Performance Anion-Exchange Chromatography (HPAEC) with suppressed conductivity detection. The HPAEC device comprises a DIONEX DX600 system (DIONEX Corporation, Sunnyvale Calif., USA) connected to computer loaded with DIONEX Chromeleon® chromatography software. A DIONEX CD25 conductivity detector is used with an anion self regenerating suppressor (ASRS®-ultra II-4 mm), which is set to either auto-suppression mode or external water mode. The HPAEC column used is a DIONEX Ion Pac® AS11 column (4×250 mm) equipped with an AG11 guard column (4×50 mm). In this procedure, phosphoesters are eluted (as anionic form) from the anion exchange column with a sodium or potassium hydroxide step gradient.
Stability tests of CHDMAPP-Na2,1H2O have been conducted according to ICH guideline Q7a, Section 19.11, under various storage conditions: 5° C., and 25° C./60% RH, both in closed glass vials. Purity has been assessed at regular time intervals (t0, 1, 3, 6 and 9 months) by HPAEC using a Dionex Ion Pac AS11, 4.0×250 mm column and a Dionex Ion Pac AG11, […] and by eluting with a gradient of water and NaOH solution.

The nature of series [4]: pKa of the acidic functions. Format: physicochemical. The source says:
Each of these acidic functions can be coupled with a cation. Therefore, three stoichiometries of sodium salts of CHDMAPP may be prepared: A monosodium salt, a disodium salt and a trisodium salt.

A short description of series [5]: stability of CHDMAPP in solution in water. Format: physicochemical. Conditions: in solution in water at 5% in weight, 55° C. The source says:
The crystalline phase thus provides a dramatic improvement of the stability and of the storage capabilities of the drug product.

In the next series the test system is γδ T cells. Conditions: activator of γδ T cells; times higher than BrHPP; cited from earlier work.

For `C/C(=C\CCP(=O)(O)OP(=O)(O)O)CO` [CHDMAPP-Na2,1H2O, (2E)-1-hydroxy-2-methylpent-2-enyl-pyrophosphonate disodium monohydrate], the hygroscopicity entry in series [1] is “great non-hygroscopicity”. Also, the “spontaneous phase transformation on storage” value in series [2] (after more than 6 months, 25° C., 60% RH) is on record as “does not observe any spontaneous phase transformation”. Moreover, in series [2], the “crystalline structure after storage (XRPD)” value was “has not been modified”. Further, the “temperature up to which compound is stable (onset of endothermic dehydration peak)” value in the series “TG/DSC thermal stability” (listed as monohydrate disodium salt) stood at 115 °C; in “TG/DSC thermal stability” (disodium monohydrate) it was 115.7 °C. Further, the Purity came to 99.1% in series [3] (storage 5° C., 1 month); 99.2% in series [3] (storage 5° C., 3 months); 98.8% in series [3] (storage 5° C., 6 months); 98.9% in series [3] (storage 5° C., 9 months); 99.3% in series [3] (storage 5° C., t 0); 99.2% in series [3] (storage 25° C./60% R.H., 1 month). In addition, the Purity worked out at 99.1% in series [3] (storage 25° C./60% R.H., 3 months); 98.7% in series [3] (storage 25° C./60% R.H., 6 months); 98.9% in series [3] (storage 25° C./60% R.H., 9 months); 99.3% in series [3] (storage 25° C./60% R.H., t 0).
In the case of `CC(=CCCP(=O)([O-])OP(=O)([O-])[O-])CO.[Na+].[Na+].[Na+]` [trisodium], the hygroscopicity entry in series [1] is recorded as “very hygroscopic solid”.
By half-life is commonly meant the time in which the quantity being followed falls by half. Read a high half-life as slow loss. On to `C/C(=C\CCP(=O)(O)OP(=O)(O)O)CO` [CHDMAPP, (2E)-1-hydroxy-2-methylpent-2-enyl-pyrophosphonate], for which the “pKa of the weak acidic function” value in series [4] (one function, weak pKa) came out at 7.1. Also, the “pKa of the two strong acidic functions” value in series [4] (two functions, strong pKa) is 2.1. This compound also registered a half-life in series [5] of 62.4 h. In addition, the “in vitro activity relative to BrHPP (Phosphostim)” value in the series with γδ T cells is reported as “approximately 100 times”.
`C/C(=C\CCP(=O)([O-])OP(=O)(O)O)CO.C/C(=C\CCP(=O)([O-])OP(=O)(O)O)CO.[Na+].[Na+]` [CHDMAPP-Na2,0H2O, anhydrous (2E)-1-hydroxy-2-methylpent-2-enyl-pyrophosphonate disodium]: the values for the hygroscopicity entry in series [1] and in series [1] (listed as anhydrous salt) were “hygroscopic” and “somewhat hygroscopic”, respectively. For the same compound, the “crystalline structure after storage (XRPD)” value in series [2] was “completely modified”.
